A short description of data set [1]: Pharmacokinetics of Compound 1 solid forms in plasma following single PO administration (IV bolus reference) in male Sprague Dawley rats. The format is in vivo. Conditions: for AUCinf: oral gavage 10 mg/kg (as free Compound 1); for AUCinf / AUC(0-inf) / bioavailability: plasma; for AUCinf / Absolute % F: 10 mg/kg; for Absolute % F: oral gavage 10 mg/kg; for AUC(0-inf) / bioavailability: male, rat; for bioavailability: read-out: Absolute % F. The method, then: Study Design. Twelve (12) male Sprague Dawley rats (purchased from SLAC Laboratory Animal Co. LTD were randomized into four groups (3 animals per group). The animals were fasted overnight, the forms of Compound 1 shown in Table 24 were administered by oral gavage, and the animals were fed 4 hours post-dose. Each form of Compound 1 was administered as a suspension in water containing 0.5% microcrystalline cellulose and 0.1% Tween 80. The Dose Levels and Dose Concentrations shown in Table 24 are based on the corresponding amount of free Compound 1.
Blood Collection. Blood was serially collected from each animal 0.083 hr, 0.25 hr, 0.5 hr, 1 hr, 2 hr, 4 hr, 8 hr, 24 hr, 48 hr, and 72 hrs post-dose. For each collection, the animal was restrained manually, and approximately 150 μL of blood sample was collected via the tail vein into K2EDTA tubes. The blood samples were put on ice and centrifuged at 2000 g for 5 min to obtain plasma. Plasma samples were stored at approximately −70° C. until analysis.
To enable the calculation of oral bioavailability, Compound 1 was dissolved in a vehicle containing 10% N-Methyl-2-pyrrolidone (NMP), 10% Solutol HS 15, and 80% saline and administered at 1 mg/kg as intravenous (IV) bolus dose to a separate group of male Sprague-Dawley rats, and blood samples were collected at similar time points to those shown above. Further, plasma samples were obtained from the collected blood samples and stored at approximately −70° C. until analysis.
Further, the amorphous solid dispersion of Compound 1, as described in Example 23, was suspended in an aqueous vehicle containing 0.5% methyl cellulose (MC) and 0.2% Tween80 at 0.2 mg/mL concentration and dosed at 1 mg/kg as a single oral dose to a separate group of male Sprague-Dawley rats after an overnight fasting. Blood samples were collected at similar time points to those shown above. Further, plasma was harvested and stored at approximately −70° C. until analysis.
Sample Preparation and Analysis. The concentration of Compound 1 in the plasma samples was determined by LC-MS/MS analysis.
A 20 μL aliquot of each sample was diluted with 200 μL of acetonitrile containing dexamethasone as an internal standard (40 ng/mL). The resulting mixture was vortexed for 2 min and centrifuged at 5800 rpm for 10 min. A 2 μL sample was injected into LC-MS/MS.
Results. Historical data for IV administration of Compound 1 and administration of Compound 1 as a spray dried dispersion are also provided in Table 26. The absolute bioavailability of each form of Compound 1 was determined by dividing the AUCinf of the form in question by the AUCinf obtained by IV administration of Compound 1 and correcting for differences in dose. The measured absolute bioavailability of the citrate and maleate cocrystals, as reported in Table 26, was higher than the measured bioavailability of the other forms of Compound 1.

The nature of data set [2]: Hygroscopicity by Dynamic Vapor Sorption (DVS) analysis. The data set is classed as physicochemical. Particulars: for water uptake at 80% relative humidity / hygroscopicity: DVS at 25° C.; for water uptake at 80% relative humidity: range 0-95% relative humidity; for form change after DVS analysis (XRPD of the remaining material): XRPD after DVS at 25° C., 0-95% relative humidity. The method, then: Dynamic Vapor Sorption (DVS) Analysis. DVS was measured via a SMS (Surface Measurement Systems) DVS Intrinsic. The relative humidity at 25° C. were calibrated against deliquescence point of LiCl, Mg(NO3)2 and KCl. [table] The hygroscopicity of the cocrystal was determined by DVS analysis at 25° C., over a range of 0-95% relative humidity. […]

The test system of a further data set is mutant IDH1. Conditions: biochemical and cellular assays; cited from earlier work.
The next data set deals with mutant IDH2. Conditions: biochemical and cellular assays; cited from earlier work.
Where [3] appears, read: male Sprague Dawley rats, fasted.
Setting [4] is: male Sprague Dawley rats, vs IV AUCinf, dose-corrected.
Where [5] appears, read: listed as Maleic Acid Cocrystal Type A.
[6] abbreviates: listed as Citric Acid Cocrystal Type A.

Read-outs that look alike come from different tables or passages of the source.

For the compound `C[C@@H](Nc1nc(N[C@H](C)C(F)(F)F)nc(-c2cccc(Cl)n2)n1)C(F)(F)F` [Free Form A], in data set [1] (setting [3]), the AUCinf is 30698 ng·h/mL. In addition, the “Absolute % F” value in data set [1] (setting [4]) is on record as 63.9%.
With `C[C@@H](Nc1nc(N[C@H](C)C(F)(F)F)nc(-c2cccc(Cl)n2)n1)C(F)(F)F` [Maleate Cocrystal Type A], in data set [2] (setting [5]), the “water uptake at 80% relative humidity” value was 2.0% and the hygroscopicity result is “slightly hygroscopic”. In addition, the “form change after DVS analysis (XRPD of the remaining material)” value in data set [2] was “no form change had occurred”. Further, the AUCinf in data set [1] (setting [3]) was determined as 38625 ng·h/mL. Moreover, in data set [1] (setting [4]), the “Absolute % F” value worked out at 80.4%.
Turning to `C[C@@H](Nc1nc(N[C@H](C)C(F)(F)F)nc(-c2cccc(Cl)n2)n1)C(F)(F)F` [Free Form C], in data set [1] (setting [3]), the AUCinf worked out at 10846 ng·h/mL. Also, the “Absolute % F” value in data set [1] (setting [4]) was 22.6%.
What is called AUC(0-inf) is total exposure, with the tail of the curve extrapolated. Read a low AUC(0-inf) as less exposure. Take `C[C@@H](Nc1nc(N[C@H](C)C(F)(F)F)nc(-c2cccc(Cl)n2)n1)C(F)(F)F` [Citrate Cocrystal Type A]: in data set [2] (setting [6]), the “water uptake at 80% relative humidity” value amounted to 0.5% and the hygroscopicity result is “slightly hygroscopic”. Moreover, in data set [2] (listed as citric acid cocrystal type A), the hygroscopicity entry is “low hygroscopicity”. In data set [2], the “form change after DVS analysis (XRPD of the remaining material)” value is “no form change had occurred”. Besides, in data set [1] (Sprague Dawley, po, 11.7 mg/kg, oral gavage 11.7 mg/kg (as free Compound 1), male Sprague Dawley rats, fasted), the AUC(0-inf) is 58200 ng·h/mL. Further, the bioavailability in data set [1] (Sprague Dawley, po, 11.7 mg/kg, oral gavage 11.7 mg/kg, male Sprague Dawley rats, vs IV AUCinf, dose-corrected) worked out at 104%. In addition, the “bioavailability (in words)” value in data set [1] (summary statement referring to the Examples) is “favorable bioavailability”.
Consider `C[C@@H](Nc1nc(N[C@H](C)C(F)(F)F)nc(-c2cccc(Cl)n2)n1)C(F)(F)F` [Compound 1, 6-(6-chloropyridin-2-yl)-N^2,N^4-bis((R)-1,1,1-trifluoropropan-2-yl)-1,3,5-triazine-2,4-diamine], for which, in the data set on mutant IDH1, the “inhibitor of mutant IDH1 protein” value was “inhibitor”. In data set [1] (Sprague-Dawley, iv, 1 mg/kg, IV bolus 1 mg/kg, male Sprague-Dawley rats, historical data), this compound had an AUC(0-inf) of 4800 ng·h/mL. Also, the bioavailability in data set [1] (Sprague-Dawley, iv, 1 mg/kg, IV bolus 1 mg/kg, male Sprague-Dawley rats, historical data (reference)) was determined as 100%. Further, in the data set with mutant IDH2, the “inhibitor of mutant IDH2 protein” value was “inhibitor”.
